Measured values as given in ChEMBL document CHEMBL5050844 (2019).

How the values were obtained:
[1] = target: T1, E3 ubiquitin-protein ligase CBL-B (Homo sapiens, UniProt Q13191); assay: Binding affinity towards N-terminal biotinylated Avi-tagged human CBL-B (36 to 427 residues) measured by surface plasmon resonance assay
[2] = target: T1, E3 ubiquitin-protein ligase CBL-B; assay: Inhibition of N-terminal Avi-tagged human CBL-B (36 to 427 residues) incubated with 60 nM Src kinase for 1.5 hrs followed by incubation with fluorescently labeled UbcH5B-Ub for 1 hr and measured by TR-FRET assay; assay type: single protein
[3] = Induction of anti-CD3/CD28 antibodies-stimulated human T cell activation at 1 uM assessed fold increase in IL-2 secretion measured by ELISA assay; assay type: functional, T cell line
[4] = Induction of anti-CD3/CD28 antibodies-stimulated human T cell activation at 0.3 uM assessed fold increase in IL-2 secretion measured by ELISA assay; assay type: functional, T cell line
[5] = Induction of anti-CD3 antibodies-stimulated human T cell activation at 1 uM assessed fold increase in IL-2 secretion measured by ELISA assay; assay type: functional, T cell line; also: reference of the scale not given here
[6] = Induction of anti-CD3/CD28 antibodies-stimulated human T cell activation at 1 uM assessed fold increase in CD25 expression measured by ELISA assay; assay type: functional, T cell line
[7] = Induction of anti-CD3/CD28 antibodies-stimulated human T cell activation at 0.3 uM assessed fold increase in CD25 expression measured by ELISA assay; assay type: functional, T cell line
[8] = Induction of anti-CD3 antibodies-stimulated human T cell activation at 1 uM assessed fold increase in CD25 expression measured by ELISA assay; assay type: functional, T cell line; also: reference of the scale not given here
[9] = Induction of anti-CD3/CD28 antibodies-stimulated human T cell activation at 4 uM assessed fold increase in IL-2 secretion measured by ELISA assay; assay type: functional, T cell line
[10] = Induction of anti-CD3 antibodies-stimulated human T cell activation at 8 uM assessed fold increase in IL-2 secretion measured by ELISA assay; assay type: functional, T cell line; also: reference of the scale not given here
[11] = Induction of anti-CD3/CD28 antibodies-stimulated human T cell activation at 4 uM assessed fold increase in CD25 expression measured by ELISA assay; assay type: functional, T cell line
[12] = Induction of anti-CD3 antibodies-stimulated human T cell activation at 8 uM assessed fold increase in CD25 expression measured by ELISA assay; assay type: functional, T cell line; also: reference of the scale not given here

T1 sequence (Q13191 whole entry, the tested form may be a part): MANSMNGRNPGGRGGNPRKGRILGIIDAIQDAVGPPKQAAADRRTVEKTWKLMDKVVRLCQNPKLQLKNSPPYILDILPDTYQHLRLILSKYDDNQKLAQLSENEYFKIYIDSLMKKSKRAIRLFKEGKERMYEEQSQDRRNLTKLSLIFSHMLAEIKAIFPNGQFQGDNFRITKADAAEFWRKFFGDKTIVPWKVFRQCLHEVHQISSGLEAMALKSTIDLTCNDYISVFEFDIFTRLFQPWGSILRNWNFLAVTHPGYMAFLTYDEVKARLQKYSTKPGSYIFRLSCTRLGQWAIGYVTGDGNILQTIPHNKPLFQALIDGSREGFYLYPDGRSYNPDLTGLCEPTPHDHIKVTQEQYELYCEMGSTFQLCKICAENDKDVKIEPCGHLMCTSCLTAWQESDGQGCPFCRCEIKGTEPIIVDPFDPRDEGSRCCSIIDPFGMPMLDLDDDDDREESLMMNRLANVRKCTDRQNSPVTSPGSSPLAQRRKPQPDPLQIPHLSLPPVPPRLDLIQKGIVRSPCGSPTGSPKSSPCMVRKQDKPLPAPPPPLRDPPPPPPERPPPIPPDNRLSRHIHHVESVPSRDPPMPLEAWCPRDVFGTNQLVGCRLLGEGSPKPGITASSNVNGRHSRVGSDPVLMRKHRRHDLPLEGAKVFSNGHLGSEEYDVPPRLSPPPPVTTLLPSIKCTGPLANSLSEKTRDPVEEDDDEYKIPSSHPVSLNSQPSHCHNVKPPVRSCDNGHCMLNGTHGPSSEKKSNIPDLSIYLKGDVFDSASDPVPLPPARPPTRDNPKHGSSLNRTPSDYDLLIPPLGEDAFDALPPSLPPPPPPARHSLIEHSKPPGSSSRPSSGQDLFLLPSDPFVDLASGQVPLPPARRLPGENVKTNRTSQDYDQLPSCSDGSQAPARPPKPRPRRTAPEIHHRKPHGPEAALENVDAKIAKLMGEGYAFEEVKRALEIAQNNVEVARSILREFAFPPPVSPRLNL

Row | SMILES | Kd [1] [µM] | IC50 [2] [µM] | fold change (FC) [3] | fold change (FC) [4] | fold change (FC) [5] | fold change (FC) [6] | fold change (FC) [7] | fold change (FC) [8] | fold change (FC) [9] | fold change (FC) [10] | fold change (FC) [11] | fold change (FC) [12]
1 | C[C@H](Sc1nncn1C)c1cccc(NC(=O)c2cc(NS(=O)(=O)CCO)ccn2)c1 | > 10 |  |  |  |  |  |  |  |  |  |  | 
2 | C[C@H](Sc1nncn1C)c1cccc(NC(=O)c2cc3cc(OCC(=O)O)ccc3cn2)c1 | > 10 |  |  |  |  |  |  |  |  |  |  | 
3 | CC(Sc1nncn1C)c1ccc(F)c(NC(=O)c2ccc3ccccc3n2)c1 (centres undefined) | > 10 |  |  |  |  |  |  |  |  |  |  | 
4 | C[C@@H](Cc1nncn1C)c1ccnc(N2Cc3c(cccc3C(F)(F)F)C2=O)c1 | > 10 |  |  |  |  |  |  |  |  |  |  | 
5 | C[C@H](Sc1nncn1C)c1cccc(NC(=O)c2cc(C(=O)N3C[C@@H](O)C[C@@H]3C)ccn2)c1 | > 10 |  |  |  |  |  |  |  |  |  |  | 
6 | CC1=CC(C(=O)Nc2cccc([C@H](C)Sc3nncn3C)c2)=NC(=O)C1 | > 10 | ≥ 3 |  |  |  |  |  |  |  |  |  | 
7 | C[C@H](Cc1nnco1)c1cccc(N2Cc3c(cccc3C(F)(F)F)C2=O)c1 | > 10 |  |  |  |  |  |  |  |  |  |  | 
8 | C=CCC(Sc1nncn1C)c1cccc(NC(=O)c2cc3ccccc3cn2)c1 (centres undefined) | > 10 |  |  |  |  |  |  |  |  |  |  | 
9 | C[C@H](c1cc2c(c(C(F)(F)F)c1)CN(c1cccc(C3([C@@H](F)c4nncn4C)COC3)c1)C2=O)N1CCC2(CC2)C1 | < 0.1 | < 0.1 | >=7.5 | >=7.5 | >=0.201 | >=1.76 | >=1.76 | >=1.001 |  |  |  | 
10 | C[C@H](Sc1nncn1C)c1cccc(NC(=O)c2cc(C(=O)N3C[C@H](O)C[C@H]3C)ccn2)c1 | > 10 |  |  |  |  |  |  |  |  |  |  | 
11 | C=CCC(Sc1nncn1C)c1cccc(NC(=O)c2ccc3ccccc3n2)c1 (centres undefined) | > 10 |  |  |  |  |  |  |  |  |  |  | 
12 | CC(C)c1cccc(C(=O)Nc2cccc([C@H](C)Sc3nncn3C)c2)c1 | > 10 |  |  |  |  |  |  |  |  |  |  | 
13 | C[C@H](Sc1nncn1C)c1cccc(NC(=O)c2cccc(C(F)(F)F)c2)c1 | > 10 |  |  |  |  |  |  |  |  |  |  | 
14 | Cc1cc(C(=O)Nc2cccc(C3(Cc4nncn4C)COC3)c2)nc(C2CCC2)n1 |  | < 0.1 | 5 | 1.01 | 0.151 | 1.01 | 1.01 | 0.801 | >=7.5 | >=0.201 | 1.31 | >=1.001
15 | C[C@H](c1cc2c(c(C(F)(F)F)c1)CN(c1cccc(C3(Cc4nncn4C)COC3)c1)C2=O)N1CCC(F)(F)C1 |  | < 0.1 | >=7.5 | 2.51 | 0.151 | 1.31 | 1.01 | >=1.001 | >=7.5 | >=0.201 | 1.31 | >=1.001
16 | C[C@H](Sc1nncn1C)c1cccc(NC(=O)c2ccc(C#N)c(C3CC3)n2)c1 |  | < 0.1 | 2.51 | 1.01 | <=0.05 | 1.31 | 1.01 | 0.601 | 5 | 0.101 | 1.31 | >=1.001
17 | C[C@H](Sc1nncn1C)c1cccc(NC(=O)c2ccc(F)c(C3CC3)n2)c1 |  | < 0.1 | 2.51 | 1.01 | <=0.05 | <=1 | <=1 | 0.601 | >=7.5 | 0.101 | 1.01 | >=1.001
18 | Cn1cnnc1C(F)(F)[C@](C)(F)c1cccc(N2Cc3c(cc(CN4CC(C(F)F)C4)cc3C(F)(F)F)C2=O)c1 |  | < 0.1 | >=7.5 | 5 | >=0.201 | 1.31 | 1.31 | >=1.001 | >=7.5 | 0.151 | 1.31 | >=1.001
19 | Cn1cnnc1CC1(c2cccc(N3Cc4c(cc(CN5CC(C)(C#N)C5)cc4C(F)(F)F)C3=O)c2)COC1 |  | < 0.1 | >=7.5 | 2.51 | 0.151 | 1.31 | 1.01 | 0.601 | >=7.5 | 0.051 | 1.51 | <=0.6
20 | CC(c1cccc(N2Cc3c(cccc3C(F)(F)F)C2=O)c1)C(F)(F)c1nncn1C (centres undefined) | < 0.1 |  |  |  |  |  |  |  |  |  |  | 

More lines, main results first:

Row | Kd [1] [µM] | IC50 [2] [µM] | SMILES | fold change (FC) [3] | fold change (FC) [4] | fold change (FC) [5] | fold change (FC) [6] | fold change (FC) [7] | fold change (FC) [8] | fold change (FC) [9] | fold change (FC) [10] | fold change (FC) [11] | fold change (FC) [12]
21 | > 10 |  | C[C@@H](Sc1nncn1C)c1cccc(NC(=O)c2cc(C(=O)N3CCC(O)C3)ccn2)c1 (single isomer, unassigned) |  |  |  |  |  |  |  |  |  | 
22 | > 10 |  | C[C@H](Sc1nncn1C)c1cccc(NC(=O)c2cc(C(=O)N3CCC[C@@H](O)C3)ccn2)c1 |  |  |  |  |  |  |  |  |  | 
23 | ≥ 3 | ≥ 3 | CCn1cnnc1C[C@H](C)c1cccc(NC(=O)c2cc(S(C)(=O)=O)cc(C3CC3)n2)c1 |  |  |  |  |  |  |  |  |  | 
24 | < 0.1 |  | CC(O)C1CN(C(=O)c2ccnc(C(=O)Nc3cccc([C@H](C)Cc4nncn4C)c3)c2)C1 (some centres undefined) |  |  |  |  |  |  |  |  |  | 
25 | > 10 |  | C[C@H](Sc1nncn1C)c1cccc(NC(=O)c2cc(C(=O)N3CCC[C@H](O)C3)ccn2)c1 |  |  |  |  |  |  |  |  |  | 
26 | > 10 |  | C[C@H](Cc1ncnn1C)c1cccc(N2Cc3c(cccc3C(F)(F)F)C2=O)c1 |  |  |  |  |  |  |  |  |  | 
27 | > 10 |  | C[C@H](Sc1nncn1C)c1cccc(NC(=O)c2cc(C(=O)N3CCCC3)ccn2)c1 |  |  |  |  |  |  |  |  |  | 
28 | < 0.1 | < 0.1 | Cn1cnnc1CC1(c2cccc(N3Cc4c(cc(CN5CC[C@H](F)C5)cc4C4CC4)C3=O)c2)COC1 | >=7.5 | >=7.5 | 0.151 | 1.31 | 1.31 | >=1.001 |  |  |  | 
29 | < 0.1 | < 0.1 | C[C@H](Cc1nncn1C)c1cccc(N2Cc3c(cc(CN4CC[C@H](O)C4)cc3C(F)(F)F)C2=O)c1 |  |  |  |  |  |  |  |  |  | 
30 | > 10 |  | Cc1cnc(C(=O)Nc2cccc([C@H](C)Sc3nncn3C)c2)cc1C(F)(F)F |  |  |  |  |  |  |  |  |  | 
31 | > 10 |  | C[C@@H](Sc1nncn1C)c1ccnc(N2Cc3c(cccc3C(F)(F)F)C2=O)c1 |  |  |  |  |  |  |  |  |  | 
32 | > 10 |  | COc1c(C(=O)Nc2cccc([C@H](C)Sc3nncn3C)c2)cccc1C(F)(F)F |  |  |  |  |  |  |  |  |  | 
33 | > 10 |  | C[C@H](Sc1nncn1C)c1ccnc(NC(=O)c2cc(C(F)(F)F)c(Cl)cn2)c1 |  |  |  |  |  |  |  |  |  | 
34 | < 0.1 | < 0.1 | C[C@H](c1cc2c(c(C(F)(F)F)c1)CN(c1cccc(C3(C(F)(F)c4nncn4C)COC3)c1)C2=O)N1CC[C@H](F)C1 | >=7.5 | >=7.5 | >=0.201 | >=1.76 | >=1.76 | >=1.001 |  |  |  | 
35 |  | < 0.1 | C[C@@H]1CN(C)CCN1c1cc2c(c(C(F)(F)F)c1)CN(c1cccc([C@@](C)(F)C(F)(F)c3nncn3C)c1)C2=O | 1.01 | 1.01 | <=0.05 | 1.01 | 1.01 | 0.801 | 2.51 | 0.101 | 1.31 | >=1.001
36 |  | < 0.1 | Cn1cnnc1CC1(c2cccc(NC(=O)c3cc(C4CC4)nc(C4CC4)n3)c2)COC1 | >=7.5 | 2.51 | 0.151 | 1.01 | 1.01 | >=1.001 | >=7.5 | >=0.201 | 1.31 | >=1.001
37 |  | < 0.1 | C[C@H](Cc1nncn1C)c1cccc(NC(=O)c2ccnc(C3CC3)n2)c1 | 5 | 2.51 | >=0.201 | 1.31 | 1.01 | >=1.001 | >=7.5 | >=0.201 | 1.51 | >=1.001
38 |  | < 0.1 | C[C@H](Cc1nncn1C)c1cccc(NC(=O)c2nc3c(C(F)(F)F)cccc3[nH]2)c1 | 5 | 2.51 | >=0.201 | 1.51 | 1.01 | >=1.001 | >=7.5 | >=0.201 | >=1.76 | >=1.001
39 |  | < 0.1 | C[C@@H](c1cc2c(c(C(F)(F)F)c1)CN(c1cccc([C@@](C)(F)C(F)(F)c3nncn3C)c1)C2=O)N1CC[C@H](F)C1 | >=7.5 | >=7.5 | >=0.201 | 1.51 | 1.31 | >=1.001 | >=7.5 | >=0.201 | 1.51 | >=1.001
40 | > 10 |  | C[C@@H](Sc1nncn1C)c1ccc(F)c(NC(=O)c2cccc(C(F)(F)F)n2)c1 |  |  |  |  |  |  |  |  |  | 
